Test results from patent publication US20130158112A1, “COMPOSITIONS AND METHODS FOR INHIBITING BETA AMYLOID SECRETION” (priority 2011, published 2013).
“And” between values parts separate entries of the source, which are not always exact repeats. Identical values can stand only once. Like-named read-outs stand apart in the source and are kept apart here.

Tests used:
[1] = system: Aβ secretion; assay: Secreted total Aβ ELISA in conditioned media of H4βAPP695 wt cells; type: cell-based, human
Outline: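 H4 […] cells stably expressing wild-type βAPP695 (CMV promoter), serum-starved 24 h, then exposed to drug in DMSO or vehicle for 24 h before Aβ in conditioned media was measured. Primary cortical neurons came from E18 APPswe/PSEN1dE9 mice on C57BL/6 background.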

[2] = system: H4βAPP695 wt cells; assay: Cytotoxicity by total cell protein content (BCA) of H4βAPP695 wt cells; conditions: cytotoxicity
Description: Cells were washed with cold phosphate buffered saline (PBS) and lysed on ice by vigorous mixing over 15 min with RIPA buffer containing 50 mM Tris-HCl (pH 8.0), 150 mM sodium chloride, 1% NP-40, 0.5% sodium deoxycholate, and 0.1% SDS, supplemented with 10% protease inhibitor cocktail and 2 mM PMSF. After centrifugation at 14000 g for 30 min to remove nuclei and other debris at 4° C., the protein content of the supernatants was measured using the BCA assay kit (Pierce).
The initial screen was performed in 96-well plates with drugs distributed by the hanging drop method yielding estimated drug levels of 10-25 μM. Total Aβ levels in the 24 h conditioned media were measured by a sandwich ELISA assay, and cytotoxicity was assessed by methylene blue staining of the cells in the wells, as previously described.

[3] = system: THLE-3 human hepatoma cells; assay: Drug activity persistence after incubation with THLE-3 hepatoma cells; type: in vitro ADME; conditions: for inhibition at 10 µM: Homo sapiens, THLE3, 24 h
Description: (§1) H4βAPP695 wt cells, a human […] cell line stably transfected with a wtβAPP695 expression vector construct under the control of a CMV promoter (kindly provided by Dr. Chris Eckman from Mayo Clinic, Florida) were cultured as previously described. Twenty-four hours before drug treatment, the media was replaced with serum-free media. Cells were then incubated with drugs (dissolved in DMSO) or vehicle for 24 h for collection of conditioned media and cell lysates. For the PKC inhibitors experiment, three inhibitors were treated 30 min prior to drug challenge. Primary cortical neurons were prepared from embryonic day 18 APP and presenilin 1 (APPswe, PSEN1dE9) transgenic mice on the C57BL/6 genetic background (Jackson Laboratories, strain no. 5864) as previously described. THLE-3 human hepatoma cells (from ATCC) were plated in 24-well plates that were precoated with 10 μg/mL bovine serum albumin, 10 μg/mL fibronectin, and 30 μg/mL bovine type I collagen. The cells were grown in BEGM media (Clonetics) until confluent and treated with drugs at 20 μM for 24 h. This conditioned media was harvested, diluted 1:1 in serum-free medium, and incubated with H4βAPP695 wt cells for 24 h prior to analysis of secreted Aβ, which was compared to the effect of 10 μM drug treatments without prior incubation with the THLE-3 cells. Caco-2 cells (ATCC) were plated in 12-well plates with Transwell inserts (Costar) at 70000 cells per well and grown for 21 days. The media volume of the apical and basal chambers was 0.5 and 1.5 mL, respectively. Transepithelial resistance was measured in each well and found to be >160 Ω/cm^2. Drugs at 40 μM and 20 μg/mL of lucifer yellow were added in serum-free medium to the apical chamber. Four hours later, the basal chamber media was harvested and used to measure lucifer yellow fluorescence to confirm monolayer integrity as well as for treatment of H4βAPP695 wt cells for 24 h prior to analysis of secreted Aβ, which was compared to the effect of direct addition of 10 μM of the corresponding drug.
To screen for resistance to metabolism, 1 and eight noncytotoxic analogues with >50% Aβ reducing activity (compounds 27, 29, 48, 52, 53, 65, 73, and 76) were incubated at 20 μM for 24 h with or without THLE-3 human hepatoma cells.

[4] = Body weight after one-week oral feeding; type: in vivo, mouse; conditions: 0.31-2.5 g/kg in chow diet
Description: (§2) In this Example, mutant APP/PS1 transgenic mice were obtained from Dr. Mathias Jucker (R Radde et al. 2006, EMBO Reports 7:940-946). […] The drug was milled into the chow diet (Harlan Teklad #2018) at 4 doses: 0.31, 0.62, 1.25, and 2.5 g/kg. Assuming each mouse eats 4 g of per day, the lowest dose should yield 1.24 mg intake per day, or about 75 mg/kg body weight. Six-week old female transgenic mice were fed ad librium with the chow diet or the diet supplemented with the four drug doses. […] At the end of the study, brains were isolated, and half brains were homogenized in a buffer containing guanidine hydrochloride and SDS. This extract was diluted and used in assays for total protein and an ELISA for Abeta levels. […] There was not a dose response in this study, as the effect appeared to plateau out even at the lowest dose of the drug, 0.31 g/kg diet. This oral diet study supported a prior finding using 3 oral gavages of this drug at an estimated dose of 200 mg/kg body weight delivered in Cremaphor over a 1.5 day period in which we observed a 30% decrease in cerebral Aβ levels (data not shown).

[5] = system: cerebral Aβ levels; assay: Oral treatment and cerebral Aβ ELISA in mutant APP/PS1 transgenic mice; type: in vivo, mouse; conditions: 3 oral gavages, estimated 200 mg/kg in Cremaphor over 1.5 day
Description: as §2

[6] = system: cerebral Aβ levels; assay: In vivo iv administration and cerebral Aβ assay; set-up: species or system mouse; conditions: APP/PS1 transgenic mice, iv 100 to 125 mg/kg single dose, 6 h
Description: Transgenic mice expressing humanized mutant versions of APP and presenilin 1 (APPswe, PSEN1dE9) on the C57BL/6 genetic background were obtained from Jackson Laboratories (strain no. 5864) and bred to wild type C57BL/6 mice in order to obtain ˜50% transgenic that were used in these studies. These mice develop Aβ senile plaques by 6 months of age. To prepare the drug stock, 17.5 mg of compound 48 was dissolved in 40 μL of DMSO, which was mixed sequentially with 110 μL of Cremophor EL (Sigma) and 900 μL of sterile saline. Two month old female transgenic mice weighing 20-25 g were anesthetized with ketamine/xylazine and injected iv via the retroorbital plexus with vehicle control or with 2.5 mg of compound 48 in 150 μL of the drug stock (yielding a dose of ˜100 to 125 mg/kg). Six h later, the mice were euthanized by CO2 inhalation, the brains were removed, and the cerebellum discarded. One brain hemisphere was homogenized for 45 s on ice using a tissue grinder in 1 mL of solution containing 5 M guanadine HCl, 50 mM Tris (final pH adjusted to 8.3), and 5% protease inhibitor cocktail. Any debris was removed by centrifugation for 10 min at 2000 g. The supernatant was diluted 1:10 in 20% casein blocker in PBS with 5% protease inhibitor cocktail. […] The protein concentration of the brain homogenate was determined with the BCA assay, and the total Aβ levels were normalized to brain protein levels. […]

[7] = system: Caco-2 cells; assay: Epithelial transcellular transport of drug activity through Caco-2 monolayers; type: in vitro ADME
Description: as §1
Monolayer integrity was confirmed by high levels of transcellular electrical resistance (>160 ohms/cm^2) and by transcellular impermeability to the fluorescent dye lucifer yellow. […] The concentration of each compound added to the upper chamber would lead to 10 μM in the lower chamber if equilibration was complete, and thus the activity of the lower chamber media was compared to the activity of 10 μM drug added directly to the H4βAPP695 wt cells. […] Compound 1 crossed the monolayer and the bottom chamber media led to a 27% reduction in Aβ production, yielding 38% of the theoretical activity. The compound with the most activity in the lower chamber was compound 48, which decreased Aβ production by 50%, with 71% of its theoretical activity. […] On the basis of the combined activity data from these last two studies, compound 48 was selected as the lead drug for in vivo study.

For Cc1cccc(CSCCNC(=O)c2c(Cl)cccc2Cl)c1 [Compound 48, 2,6-Dichloro-N-[2-(3-methyl-benzylsulfanyl)-ethyl]-benzamide], the inhibition at 30 µM ([1]; Homo sapiens, 24 h, 30 μM, H4βAPP695 wt cells, 24 h, read-out: Total Aβ (% decrease) 30 μM Mean) was 85.8%, the “Aβ secretion inhibiting activity (structure activity summary)” value ([1]; in words) was “good activity” and the “Cell protein (% decrease) 10 μM Mean” value ([2]; 10 μM) was 11.7%. The “Cell protein (% decrease) 30 μM Mean” value ([2]; 30 μM) was 16.6%, the melting point was 56 to 57 °C and the inhibition at 10 µM ([3]; 10 μM on H4 cells, without preincubation with hepatoma cells, read-out: hepatoma incubation No total Aβ (% decrease)) was 70.5%. For the same compound, the inhibition at 10 µM ([3]; 20 μM preincubated 24 h with THLE-3 hepatoma cells, diluted to 10 μM on H4 cells, read-out: hepatoma incubation Yes total Aβ (% decrease)) was 38%, the “% remaining Activity” value ([3]; after 24 h incubation with hepatoma cells) was 54% and the “effect on body weights” value [4] was “no significant effect”. For the same compound, the “decrease in cerebral Aβ levels, oral gavage” value [5] was 30%, the “reduction in cerebral Aβ levels” value [6] was 39.6% and the “% theoretical activity” value ([7]; % of activity passing through Caco-2 monolayer) was 71% and 70.8%. For the same compound, the inhibition at 10 µM ([7]; Homo sapiens, Caco-2, 10 μM drug alone added directly to H4βAPP695 wt cells, read-out: transcellular transport No total Aβ (% decrease)) was 70.5% and the inhibition at up to 10 µM ([7]; Homo sapiens, Caco-2, 4 h, lower chamber media after 4 h on Caco-2 monolayer, 10 μM if in equilibrium, read-out: transcellular transport Yes total Aβ (% decrease)) was 50%.
